# Laboratory results as given in US12286435B2, “Compound having benzo seven-membered ring structure, preparation method therefor, and use thereof” (BIONNA (BEIJING) MEDICAL TECHNOLOGY CO., LTD., priority 2019, dated 2025).
# Values joined by “and” are separate entries in the source; they are usually repeats but may differ in a detail not shown here. Equal entries are not always repeated.
# Experiments:
# [1] = test system: multiple myeloma MM.1S cell line; assay: Cell viability (CCK-8), multiple myeloma MM.1S; type: cell-based; conditions: Homo sapiens, MM1.S, 96 h, MM.1S cells, 4 days, CCK-8, 50% inhibition of cell growth
# Outline: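 Cells (about 3000-5000 per well) exposed to 3-fold serial dilutions of compound for 4 days at 37° C, 5% CO2. CCK-8 added 2-4 h, absorbance at 450 nm, viability normalised to untreated cells after medium-only blank subtraction; IC50 is concentration giving 50% growth inhibition.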
# BRD4 BD1 protein = BRD4 BD1 protein (Homo sapiens (Human), UniProt O60885); assay: Fluorescence polarization binding affinity (Ki) with BRD4 BD1 protein; conditions: fluorescence polarization; Ki calculated from IC50
# [2] = test system: leukemia MV4-11 cell line; assay: Cell viability (CCK-8), leukemia MV4-11; type: cell-based; conditions: Homo sapiens, 96 h; MV4-11 cells, 4 days, CCK-8, 50% inhibition of cell growth
# Protocol: 3. Determination of cell viability of the compound
# The sample to be tested was dissolved with 100% dimethyl sulfoxide to prepare a 20 mM stock solution of the compound, which was diluted with 100% dimethyl sulfoxide to the highest compound concentration required for the experiment (2.5 mM).
# First, 145 uL of a complete cell culture medium was added to wells B1-G1 of a 96-well flat-bottomed tansparent cell culture plate, and 100 uL of the complete medium was added to wells B2-G12, respectively. Then, 5 uL of the 2.5 mM solution of the compound was added to wells B1-D1 and E1-G1 respectively, and then diluted gradiently by 3-folds to B12-D12 and E12-G12 in sequence. Finally, 50 uL of the solution of the cells to be tested was added to each well, with about 3000-5000 cells per well, and a total volume of 150 uL per well.
# In the experiment, in addition to the tested compound, two other control groups were set up: 1) a control group adding the cells and the complete medium, but without adding the compound; 2) a control group adding the complete medium only, without adding the cells and the compound. The 96-well plate was placed in a 37° C. cell culture incubator containing 5% carbon dioxide for 4 days, added with 15 uL of a CCK-8 reagent per well, and then incubated at 37° C. for 2-4 hours. The 96-well plate was read on a TECAN microplate reader, and the absorbance value at 450 nm wavelength was taken.
# The effect of different concentrations of the compound on cell viability was calculated by the following equation: [absorption value of the experimental group−absorption value of pure cell culture medium without the cells or the compound]/[absorption value of the control group with the tumor cells but no testing compound−absorption value of pure cell culture medium without the cell or the compound]×100%.
# The above data were precessed by software, and the IC50 value was the concentration of the compound corresponding to the 50% inhibition rate of cell growth.
# Based on the above test method of the compound on cell viability, a variety of […] cancer cell lines were tested, using multiple myeloma MM.1S, breast cancer MDA-MB-231 and leukemia MV4-11 cell lines as exemples. Using this test method, the IC50 values of partial compounds in the examples of the present invention measured in multiple myeloma MM.1S, breast cancer MDA-MB-231 cell lines and leukemia MV4-11 cell lines were shown in Table 2.
# BRD4 BD2 protein = BRD4 BD2 protein (Homo sapiens (Human), UniProt O60885); assay: Fluorescence polarization binding affinity (Ki) with BRD4 BD2 protein; set-up: BRD4 BD2 Ki: reference not given here; conditions: fluorescence polarization; Ki calculated from IC50
Structure (SMILES),IC50 [1] [µM],Ki (BRD4 BD1 protein),IC50 [2] [µM],Ki (BRD4 BD2 protein),BRD4 BD2 Ki (BRD4 BD2 protein)
"Cc1nnn2c1-c1ccc(-c3cnn(C)c3)cc1C(Nc1cccc(CO)c1)CC2 (centres unmarked) [LB164, (3-((1-methyl-9-(1-methyl-1H-pyrazol-4-yl)-6,7-dihydro-5H-benzo[c][1,2,3]triazolo[1,5-a]azepin-7-yl)amino)phenyl)methanol]",0.026,0.0957 µM,0.0393,0.0127 µM,
"Cc1nnn2c1-c1ccc(C3=CCN(C4CCC4)CC3)cc1C(Nc1cccc(Cl)c1)CC2 (centres unmarked) [BH159, N-(3-chlorophenyl)-9-(1-cyclobutyl-1,2,3,6-tetrahydropyridin-4-yl)-1-methyl-6,7-dihydro-5H-benzo[c][1,2,3]triazolo[1,5-a]azepin-7-amine 2,2,2-trifluoroacetate]",0.285,0.879 µM,0.0752,0.00931 µM,
"Cc1nnn2c1-c1ccc(C3=CCN(C4CCCCC4)CC3)cc1C(Nc1cccc(Cl)c1)CC2 (centres unmarked) [BH104, N-(3-chlorophenyl)-9-(1-cyclohexyl-1,2,3,6-tetrahydropyridin-4-yl)-1-methyl-6,7-dihydro-5H-benzo[c][1,2,3]triazolo[1,5-a]azepin-7-amine 2,2,2-trifluoroacetate]",0.119,0.71 µM,0.00132,0.0134 µM,
"Cc1nnn2c1-c1ccc(C3=CCN(C(C)C)CC3)cc1[C@H](Nc1cccc(Cl)c1)CC2 [RE13 (R), (7R)—N-(3-chlorophenyl)-9-(1-isopropyl-1,2,3,6-tetrahydropyridin-4-yl)-1-methyl-6,7-dihydro-5H-benzo[c][1,2,3]triazolo[1,5-a]azepin-7-amine 2,2,2-trifluoroacetate]",0.546,1.42 µM,0.126,0.0148 µM,
"Cc1nnn2c1-c1ccc(C3=CCN(C4CCCCC4)CC3)cc1C(Nc1ccc(F)c(Cl)c1)CC2 (centres unmarked) [LD76, N-(3-chloro-4-fluorophenyl)-9-(1-cyclohexyl-1,2,3,6-tetrahydropyridin-4-yl)-1-methyl-6,7-dihydro-5H-benzo[c][1,2,3]triazolo[1,5-a]azepin-7-amine 2,2,2-trifluoroacetate]",0.879,1.06 µM,0.105,0.0107 µM and 0.0361 µM,
"CCN1CC=C(c2ccc3c(c2)C(Nc2ccc(Cl)cc2)CCn2nnc(C)c2-3)CC1 (centres unmarked) [LD23, N-(4-chlorophenyl)-9-(1-ethyl-1,2,3,6-tetrahydropyridin-4-yl)-1-methyl-6,7-dihydro-5H-benzo[c][1,2,3]triazolo[1,5-a]azepin-7-amine 2,2,2-trifluoroacetate]",0.443,0.334 µM,0.00732,0.0415 µM,
"Cc1nnn2c1-c1ccc(C3=CCN(C4CCCCC4)CC3)cc1C(Nc1cc(Cl)ccc1F)CC2 (centres unmarked) [BH187, N-(5-chloro-2-fluorophenyl)-9-(1-cyclohexyl-1,2,3,6-tetrahydropyridin-4-yl)-1-methyl-6,7-dihydro-5H-benzo[c][1,2,3]triazolo[1,5-a]azepin-7-amine 2,2,2-trifluoroacetate]",1.3,1.72 µM,0.106,0.0288 µM,
"CC(=O)N1CC=C(c2ccc3c(c2)C(Nc2cc(Cl)ccc2F)CCn2nnc(C)c2-3)CC1 (centres unmarked) [BH192, 1-(4-(7-((5-chloro-2-fluorophenyl)amino)-1-methyl-6,7-dihydro-5H-benzo[c][1,2,3]triazolo[1,5-a]azepin-9-yl)-3,6-dihydropyridin-1 (2H)-yl)ethan-1-one]",0.00615,0.106 µM,0.00021,0.00345 µM,
"CCN1CC=C(c2ccc3c(c2)C(Nc2cccc(Cl)c2)CCn2nnc(C)c2-3)CC1 (centres unmarked) [BH36, N-(3-chlorophenyl)-9-(1-ethyl-1,2,3,6-tetrahydropyridin-4-yl)-1-methyl-6,7-dihydro-5H-benzo[c][1,2,3]triazolo[1,5-a]azepin-7-amine 2,2,2-trifluoroacetate]",0.146,0.717 µM and 1.4 µM,0.0575,0.0138 µM and 0.016 µM,
"Cc1nnn2c1-c1ccc(-c3cnn(C)c3)cc1C(Nc1ccccc1CO)CC2 (centres unmarked) [LB192, (2-((1-methyl-9-(1-methyl-1H-pyrazol-4-yl)-6,7-dihydro-5H-benzo[c][1,2,3]triazolo[1,5-a]azepin-7-yl)amino)phenyl)methanol]",< 0.001,0.0946 µM,< 0.0001,0.0161 µM,
"CNC(=O)Cc1cccc(NC2CCn3nnc(C)c3-c3ccc(-c4cnn(C)c4)cc32)c1 (centres unmarked) [LC10, N-methyl-2-(3-((1-methyl-9-(1-methyl-1H-pyrazol-4-yl)-6,7-dihydro-5H-benzo[c][1,2,3]triazolo[1,5-a]azepin-7-yl)amino)phenyl)acetamide]",0.104,0.0693 µM,0.0128,,<Kd
"COC(=O)Cc1cccc(NC2CCn3nnc(C)c3-c3ccc(-c4cnn(C)c4)cc32)c1 (centres unmarked) [LB63, methyl 2-(3-((1-methyl-9-(1-methyl-1H-pyrazol-4-yl)-6,7-dihydro-5H-benzo[c][1,2,3]triazolo[1,5-a]azepin-7-yl)amino)phenyl)acetate]",0.16,0.0778 µM,,0.014 µM,
"CCN1CC=C(c2ccc3c(c2)C(Nc2cccc(OC)c2)CCn2nnc(C)c2-3)CC1 (centres unmarked) [BH33, 9-(1-ethyl-1,2,3,6-tetrahydropyridin-4-yl)-N-(3-methoxyphenyl)-1-methyl-6,7-dihydro-5H-benzo[c][1,2,3]triazolo[1,5-a]azepin-7-amine 2,2,2-trifluoroacetate]",0.187,1.78 µM and 0.693 µM,,0.0386 µM and 0.0279 µM,
"Cc1nnn2c1-c1ccc(-c3cnn(C)c3)cc1C(Nc1cccc3[nH]ccc13)CC2 (centres unmarked) [LB114, N-(1H-indo1-4-yl)-1-methyl-9-(1-methyl-1H-pyrazol-4-yl)-6,7-dihydro-5H-benzo[c][1,2,3]triazolo[1,5-a]azepin-7-amine]",0.0012,0.0453 µM,,0.0088 µM,
"Cc1nnn2c1-c1ccc(-c3cnn(C)c3)cc1C(Nc1cccc(CC#N)c1)CC2 (centres unmarked) [LC20, 2-(3-((1-methyl-9-(1-methyl-1H-pyrazol-4-yl)-6,7-dihydro-5H-benzo[c][1,2,3]triazolo[1,5-a]azepin-7-yl)amino)phenyl)acetonitrile]",0.0253,0.0596 µM,,0.015 µM,
"Cc1nnn2c1-c1ccc(-c3cncc4[nH]ccc34)cc1C(Nc1ccc(Cl)cc1)CC2 (centres unmarked) [RB90, N-(4-chlorophenyl)-1-methyl-9-(1H-pyrrolo[2,3-c]pyridin-4-yl)-6,7-dihydro-5H-benzo[c][1,2,3]triazolo [1,5-a]azepin-7-amine]",0.257,0.104 µM,,0.0352 µM,
"Cc1nnn2c1-c1ccc(C3=CCN(C)CC3)cc1C(Nc1cccc(Cl)c1)CC2 (centres unmarked) [LD07, N-(3-chlorophenyl)-1-methyl-9-(1-methyl-1,2,3,6-tetrahydropyridin-4-yl)-6,7-dihydro-5H-benzo[c][1,2,3]triazolo[1,5-a]azepin-7-amine 2,2,2-trifluoroacetate]",0.146,0.77 µM,,0.0331 µM,
"Cc1nnn2c1-c1ccc(-c3cnn(C)c3)cc1C(Nc1ccc3cc[nH]c3c1)CC2 (centres unmarked) [LB113, N-(1H-indo1-6-yl)-1-methyl-9-(1-methyl-1H-pyrazol-4-yl)-6,7-dihydro-5H-benzo[c][1,2,3]triazolo[1,5-a]azepin-7-amine]",0.0112,0.038 µM,,0.0074 µM,
"COc1ccc2c(c1)C(Nc1ccc(C(F)(F)F)cc1)CCc1onc(C)c1-2 (centres unmarked) [FA05, 8-methoxy-1-methyl-N-(4-(trifluoromethyl)phenyl)-5,6-dihydro-4H-benzo[6,7]cyclohepta[1,2-d]isoxazol-6-amine]",0.0252,0.205 µM,,0.138 µM,
"Cc1nnn2c1-c1ccc(-c3cnn(C)c3)cc1C(N(C)c1ccc(Cl)cc1)CC2 (centres unmarked) [RB66, N-(4-chlorophenyl)-N,1-dimethyl-9-(1-methyl-1H-pyrazol-4-yl)-6,7-dihydro-5H-benzo[c][1,2,3]triazolo[1,5-a]azepin-7-amine]",0.0313,0.0629 µM,,0.009 µM,
